Measurements from PMC3853740, “Chlorinated Didemnins from the Tunicate Trididemnum solidum” (Marine Drugs, 2013).
Like-named read-outs stand apart in the source and are kept apart here. *1 amine or outer side, *2 acyl side, *3 side chain or, on linkers, in order; H or OH if unused. Where a SMILES comes first, the peptide text is derived from it. Bridges are numbered along the chain shown (N, C = ends). [ ]: non-standard residue; d: D form. X1 = CC[C@H](C)[C@@H](N[*:1])[C@@H](O)CC(=O)O[C@H](C(=O)[C@H](C)C(=O)[*:2])C(C)C; X2 = CC(C(=O)C(OC(=O)CC(O)C(N[*:1])C(C)C)C(C)C)C(=O)[*:2]; X3 = COc1ccc(CC(C(=O)[*:2])N(C)[*:1])cc1Cl; NMeY = CN[C@@H](Cc1ccc(O)cc1)C(=O)O; dNMeL = CN[C@H](CC(C)C)C(=O)O; NMeL = CN[CH](CC(C)C)C(=O)O

What was measured:
[1] = biological target: T1, inducible nitric oxide synthase (iNOS) (Mus musculus, UniProt P29477); experiment: Inhibition of iNOS activity in LPS induced macrophages (RAW264.7 cells); assay type: cell-based
T1 construct: endogenous in cells; host or cells: RAW264.7 macrophages, LPS induced
T1 sequence (P29477 1-1144): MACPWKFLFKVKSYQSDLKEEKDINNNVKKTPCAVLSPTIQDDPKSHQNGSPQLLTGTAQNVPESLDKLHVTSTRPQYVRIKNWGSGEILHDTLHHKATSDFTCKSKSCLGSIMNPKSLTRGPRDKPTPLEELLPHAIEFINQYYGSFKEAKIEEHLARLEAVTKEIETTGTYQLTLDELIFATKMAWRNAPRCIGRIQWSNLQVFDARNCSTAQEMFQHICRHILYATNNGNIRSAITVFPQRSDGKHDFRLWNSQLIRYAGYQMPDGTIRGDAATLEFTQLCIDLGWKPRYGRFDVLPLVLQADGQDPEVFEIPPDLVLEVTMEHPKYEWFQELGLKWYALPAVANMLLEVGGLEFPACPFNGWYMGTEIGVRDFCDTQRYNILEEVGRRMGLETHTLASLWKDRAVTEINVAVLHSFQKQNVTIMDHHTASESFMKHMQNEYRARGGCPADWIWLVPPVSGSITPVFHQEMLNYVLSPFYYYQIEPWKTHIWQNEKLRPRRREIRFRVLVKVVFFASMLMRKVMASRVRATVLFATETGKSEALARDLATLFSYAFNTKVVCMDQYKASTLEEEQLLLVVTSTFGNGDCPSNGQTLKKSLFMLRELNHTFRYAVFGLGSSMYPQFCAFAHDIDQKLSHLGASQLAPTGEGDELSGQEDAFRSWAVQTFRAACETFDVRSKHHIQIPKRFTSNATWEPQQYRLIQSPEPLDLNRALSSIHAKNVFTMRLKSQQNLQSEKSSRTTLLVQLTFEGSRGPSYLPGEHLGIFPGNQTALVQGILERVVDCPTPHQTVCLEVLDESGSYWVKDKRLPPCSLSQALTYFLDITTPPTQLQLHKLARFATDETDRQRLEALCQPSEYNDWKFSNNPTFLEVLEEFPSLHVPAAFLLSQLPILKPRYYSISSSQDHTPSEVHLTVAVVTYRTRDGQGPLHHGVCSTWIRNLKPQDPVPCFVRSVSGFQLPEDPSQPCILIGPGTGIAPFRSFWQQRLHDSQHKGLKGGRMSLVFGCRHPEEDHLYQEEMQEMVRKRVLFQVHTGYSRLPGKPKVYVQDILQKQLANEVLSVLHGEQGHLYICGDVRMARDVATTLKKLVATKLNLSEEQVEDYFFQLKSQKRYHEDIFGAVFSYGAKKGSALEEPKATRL
Method: (§1) The isolated compounds 1–4 were tested in a series of in vitro cell-based assays for their effects on selected targets involved in the process of inflammation and cancer. Inflammation and oxidative stress are known to be linked to the development of many disorders such as cancer, organ damage, and neurodegenerative conditions. The NF-κB family of transcription factors plays a key role in inflammation, cell cycle regulation, apoptosis, and oncogenesis by controlling gene network expression. The activation of NF-κB involves many cellular processes leading to inflammation and development of cancer. In the assay for NF-κB activity, a luciferase construct with binding sites for specificity protein (SP-1) was used as a control because this transcription factor is relatively unresponsive to inflammatory mediators such as phorbol myristate acetate (PMA). Inducible nitric oxide synthase (iNOS) plays a key role in regulation of blood pressure, the immune system, infection, and inflammation. Overproduction of nitric oxide (NO) by iNOS has been implicated in various pathological processes such as septic shock, inflammation, rheumatoid arthritis, cancer, and tissue damage. The increase in NO response caused mainly by endotoxins and proinflammatory mediators such as lipopolysaccharide (LPS) can be reduced by anti-inflammatory agents acting as iNOS inhibitors. The isolated metabolites were also evaluated for their cytotoxicity towards four human solid tumor cell lines (SK-MEL: melanoma; KB: epidermal carcinoma; BT549: breast carcinoma and SK-OV-3: ovarian carcinoma) and non-cancer kidney cells (Vero: monkey kidney fibroblasts).
(§2) Similar to the effect of doxorubicin, the compounds (1–3) were less toxic towards noncancerous cells (Vero cells) which were included for comparison. The strong anticancer activity can be partly explained due to a strong inhibition of NF-κB mediated transcription that may cause enhanced apoptosis and cell death.
(§3) Inhibition of NF-κB mediated transcription was determined in SW1353 cells by a reporter gene assay as described by Ma et al.. Inhibition of iNOS activity was determined in RAW264.7 cells as described earlier. In vitro cytotoxicity was determined against a panel of four solid tumor cell lines and compared with noncancerous kidney cells (Vero). Parthenolide and doxorubicin were used as positive controls for anti-inflammatory and cytotoxic activity, respectively.

[2] = system: nuclear factor-kappa B (NF-κB); experiment: Inhibition of NF-κB mediated transcription, reporter gene assay in PMA induced SW1353 chondrocytes; assay type: cell-based; conditions: Homo sapiens, SW1353 cells
Method: as §1, §2, §3

SK-MEL = experiment: In vitro cytotoxicity, SK-MEL melanoma; assay type: cell-based; conditions: Homo sapiens, read-out: Anti-cell proliferative activity IC50, SK-MEL
Method: as §1, §3

KB = experiment: In vitro cytotoxicity, KB epidermal carcinoma; assay type: cell-based; conditions: Homo sapiens, read-out: Anti-cell proliferative activity IC50, KB
Method: as §1, §3

BT-549 = experiment: In vitro cytotoxicity, BT-549 breast carcinoma; assay type: cell-based; conditions: Homo sapiens
Method: as §1, §3

SK-OV-3 = experiment: In vitro cytotoxicity, SK-OV-3 ovarian carcinoma; assay type: cell-based; conditions: Homo sapiens
Method: as §1, §3

VERO = experiment: In vitro cytotoxicity, Vero non-cancer kidney fibroblasts; assay type: cell-based, monkey; conditions: Primates, read-out: Anti-cell proliferative activity IC50, VERO
Method: as §1, §3

[3] = RAW264.7 cells, LPS induced, read-out: iNOS inhibition IC50
[4] = BT-549, read-out: Anti-cell proliferative activity IC50, BT-549
[5] = SK-OV-3, read-out: Anti-cell proliferative activity IC50, SK-OV-3

Structure (SMILES): CCC(C)C1NC(=O)C(NC(=O)C(CC(C)C)NC)C(C)OC(=O)C(Cc2ccc(OC)c(Cl)c2)N(C)C(=O)C2CCCN2C(=O)C(CC(C)C)NC(=O)C(C)C(=O)C(C(C)C)OC(=O)CC1O (centres unmarked) [Compound 1, N,O-diMe-o-chlorotyrosine derivative of didemnin A]
- IC50 [1, 3]: 400 nM
- IC50 [2]: 260 nM
- IC50 (SK-MEL): 120 nM
- IC50 (KB): 260 nM
- IC50 (BT-549; [4]): 160 nM
- IC50 (SK-OV-3; [5]): 260 nM
- IC50 (VERO): 4800 nM

Structure (SMILES): CNC(CC(C)C)C(=O)NC1C(=O)NC(C(C)C)C(O)CC(=O)OC(C(C)C)C(=O)C(C)C(=O)NC(CC(C)C)C(=O)N2CCCC2C(=O)N(C)C(Cc2ccc(OC)c(Cl)c2)C(=O)OC1C (centres unmarked) [Compound 2, nor-N,O-diMe-o-chlorotyrosine derivative of didemnin A] (H-[NMeL]T[X2]LP[X3]; ester 2-C; configuration not given here)
- IC50 [1, 3]: 420 nM
- IC50 [2]: 620 nM
- IC50 (SK-MEL): 60 nM
- IC50 (KB): 420 nM
- IC50 (BT-549; [4]): 160 nM
- IC50 (SK-OV-3; [5]): 380 nM
- IC50 (VERO): 2080 nM

Structure (SMILES): CC[C@H](C)[C@H]1NC(=O)[C@@H](NC(=O)[C@@H](CC(C)C)NC)[C@@H](C)OC(=O)[C@H](Cc2ccc(OC)cc2)N(C)C(=O)[C@@H]2CCCN2C(=O)[C@H](CC(C)C)NC(=O)[C@@H](C)C(=O)[C@H](C(C)C)OC(=O)C[C@@H]1O [Compound 3, didemnin A] (H-[dNMeL]T[X1]LP[NMeY](Me); ester 2-C)
- IC50 [1]: 190 nM
- IC50 [2]: 190 nM
- IC50 (SK-MEL): 55 nM
- IC50 (KB): 160 nM
- IC50 (BT-549; [4]): 70 nM
- IC50 (SK-OV-3; [5]): 160 nM
- IC50 (VERO): 4780 nM

Structure (SMILES): CC[C@H](C)[C@H]1NC(=O)[C@@H](NC(=O)[C@@H](CC(C)C)N(C)C(=O)[C@@H]2CCCN2C(=O)C(C)O)[C@@H](C)OC(=O)[C@H](Cc2ccc(OC)cc2)N(C)C(=O)[C@@H]2CCCN2C(=O)[C@H](CC(C)C)NC(=O)[C@@H](C)C(=O)[C@H](C(C)C)OC(=O)C[C@@H]1O (some centres unmarked) [Compound 4, didemnin B]
- IC50 [1]: 2 nM
- IC50 [2]: 30 nM
- IC50 (SK-MEL): 22 nM
- IC50 (KB): 90 nM
- IC50 (BT-549; [4]): 20 nM
- IC50 (SK-OV-3; [5]): 100 nM
- IC50 (VERO): 150 nM

Structure (SMILES): COc1cccc2c1C(=O)c1c(O)c3c(c(O)c1C2=O)C[C@@](O)(C(=O)CO)C[C@@H]3O[C@H]1C[C@H](N)[C@H](O)[C@H](C)O1 [Doxorubicin, reference compound]
- IC50 (SK-MEL; melanoma): 1100 nM
- IC50 (KB; epidermal carcinoma): 1660 nM
- IC50 (BT-549; BT-549, breast carcinoma, read-out: Anti-cell proliferative activity IC50, BT-549): 1010 nM
- IC50 (SK-OV-3; SK-OV-3, ovarian carcinoma, read-out: Anti-cell proliferative activity IC50, SK-OV-3): 1660 nM
- IC50 (VERO; noncancerous monkey kidney fibroblasts): 14000 nM

Structure (SMILES): C=C1C(=O)O[C@H]2[C@H]1CC/C(C)=C/CC[C@@]1(C)O[C@@H]21 [Parthenolide, reference compound]
- IC50 [1, 3]: 2800 nM
- IC50 [2]: 2800 nM
